Each structure is given as a SMILES string. Some results are limits rather than exact numbers.

The assay concerns myostatin gene expression in C2C12 cells. Nature of the assay: Inhibition of myostatin expression in C2C12 cells (qPCR). Type of assay: cell-based. The settings on record: Mus musculus, percentage myostatin gene expression in cells in contact with the compounds related to control cells, C2C12, 6 h. The procedure: After several experiments in which the C2C12 cells differentiated into myotubes were incubated in the presence of IGF-1 or 20E for 2 h 30 or 6 h, two screening tests were developed. Thus, the phosphorylation of the S6 protein kinase and the expression of the myostatin gene were studied in order to determine their modulation by a growth hormone or an ecdysone and to characterize these modulations from a statistical point of view. The C2C12 myoblast cells (ATCC CRL-1772) are seeded into 24-well plates at a density of 30 000 cells per well and cultured in a DMEM medium containing glucose in a proportion of 4.5 g/l and supplemented with fetal calf serum (10%) and with antibiotics (penicillin and streptomycin). Forty-eight hours later, the myoblasts are induced to differentiate by partial serum depletion (2% instead of 10%) for 5 days. The cells are then placed in a medium which is glucose-depleted (DMEM containing 1 g/l of glucose) and serum-free in the presence of the test molecules or of the references (100 ng/ml IGF-1 or 10 μ[…]) for 6 h. At the end of the experiment, the messenger RNAs (mRNAs) are extracted using the conventional methodology based on phenol and chloroform. Briefly, the cells are lysed in a Trizol solution (Sigma T9424) containing a strong acid and phenol. The mRNAs are separated from the proteins by addition of chloroform and then centrifugation. They are then precipitated from isopropanol and then suspended at a concentration of 1 μg/μl in an […] ultrapure water. 1 μg of mRNA is then converted by reverse transcription into complementary DNA by the AMV enzyme in the presence of a primer and of a mixture of nucleotides according to the protocol given by the supplier (Applied Biosystems 4368814). […] The qPCRs are carried out on a 7900HT Fast real-Time PCR detection system (Applied Biosystems). The programming conditions are standard and consist of 1 cycle at 95° C. for 15 min, followed by 40 cycles at 95° C. for 15 s and at 60° C. for 1 min and the program ends with a melt curve step between 60° C. and 95° C. […] Fluorescent probes bind to the double-stranded DNA and are fluorescent only once bound to the DNA. A fluorescence threshold is established by the machine's program. When the amount of DNA allows the fluorescent probe to exceed this threshold, a PCR cycle number, called “Ct” for “Cycle Threshold”, is obtained. It is this value which forms the basis of the calculations to quantify the DNA relatively. A ratio R is established between the amount of starting DNA of a sample and that of a control, which has not undergone treatment (i.e. […] R=2^-ΔΔCt).

On to `CO/N=C1\C=C2C(CC[C@]3(C)[C@@H](C(C)N(CC(F)F)C(=O)c4ccco4)CC[C@@]23O)[C@@]2(C)C[C@H](O)[C@H](O)C[C@@H]12` (stereo partly drawn) [Compound 37, N-(2,2-difluoroethyl)-N-[1-[(2S,3R,5R,6E,10R,13R,14S,17S)-2,3,14-trihydroxy-6-methoxyimino-10,13-dimethyl-2,3,4,5,9,11,12,15,16,17-decahydro-1H-cyclopenta[a]phenanthren-17-yl]ethyl]furan-2-carboxamide], for which the mrna remaining at 10 µM was in the range of 71 to 85%. With `CCON=C(C)[C@H]1CCC2C3=CC(=O)[C@@H]4C[C@@H](O)[C@@H](O)C[C@]4(C)C3CC[C@@]21C` (stereo partly drawn) [Compound 5, (2S,3R,5R,10R,13S,17S)-17-(N-ethoxy-C-methylcarbonimidoyl)-2,3-dihydroxy-10,13-dimethyl-1,2,3,4,5,9,11,12,14,15,16,17-dodecahydrocyclopenta[a]phenanthren-6-one] the figure was less than 70%; with `COCCN(C(=O)C(C)C)C(C)[C@H]1CC[C@@]2(O)C3=CC(=O)[C@@H]4C[C@@H](O)[C@@H](O)C[C@]4(C)C3CC[C@]12C` (stereo partly drawn) [Compound 75, N-(2-methoxyethyl)-2-methyl-N-[1-[(2S,3R,5R,10R,13R,14S,17S)-2,3,14-trihydroxy-10,13-dimethyl-6-oxo-2,3,4,5,9,11,12,15,16,17-decahydro-1H-cyclopenta[a]phenanthren-17-yl]ethyl]propanamide], less than 70%; with `CC(=NOCC(=O)O)[C@H]1CCC2C3=CC(=O)[C@@H]4C[C@@H](O)[C@@H](O)C[C@]4(C)C3CC[C@@]21C` (stereo partly drawn) [Compound 4, 2-[1-[(2S,3R,5R,10R,13S,17S)-2,3-dihydroxy-10,13-dimethyl-6-oxo-1,2,3,4,5,9,11,12,14,15,16,17-dodecahydrocyclopenta[a]phenanthren-17-yl]ethylideneamino]oxyacetic acid], less than 70%. Under `C/C(=N/OCCN1CCCC1)[C@H]1CC[C@@]2(O)C3=CC(=O)[C@@H]4C[C@@H](O)[C@@H](O)C[C@]4(C)C3CC[C@]12C` (stereo partly drawn) [Compound 36, (2S,3R,5R,10R,13R,14S,17S)-2,3,14-trihydroxy-10,13-dimethyl-17-(C-methyl-N-(2-pyrrolidin-1-ylethoxy)carbonimidoyl)-2,3,4,5,9,11,12,15,16,17-decahydro-1H-cyclopenta[a]phenanthren-6-one] stands 71 to 85%. Under `CC([C@H]1CC[C@@]2(O)C3=CC(=O)[C@@H]4C[C@@H](O)[C@@H](O)C[C@]4(C)C3CC[C@]12C)N(C(=O)c1ccc(C#N)cc1)C1CC1` (stereo partly drawn) [Compound 56, 4-cyano-N-cyclopropyl-N-[1-[(2S,3R,5R,10R,13R,14S,17S)-2,3,14-trihydroxy-10,13-dimethyl-6-oxo-2,3,4,5,9,11,12,15,16,17-decahydro-1H-cyclopenta[a]phenanthren-17-yl]ethyl]benzamide] stands 71 to 85%; under `CO/N=C1\C=C2C(CC[C@]3(C)[C@@H](C(C)N(CC(OC)OC)C(=O)C(C)C)CC[C@@]23O)[C@@]2(C)C[C@H](O)[C@H](O)C[C@@H]12` (stereo partly drawn) [Compound 38, N-(2,2-dimethoxyethyl)-2-methyl-N-[1-[(2S,3R,5R,6E,10R,13R,14S,17S)-2,3,14-trihydroxy-6-methoxyimino-10,13-dimethyl-2,3,4,5,9,11,12,15,16,17-decahydro-1H-cyclopenta[a]phenanthren-17-yl]ethyl]propanamide], less than 70%; under `CC([C@H]1CC[C@@]2(O)C3=CC(=O)[C@@H]4C[C@@H](O)[C@@H](O)C[C@]4(C)C3CC[C@]12C)N(CC(F)F)C(=O)OC(C)(C)C` (stereo partly drawn) [Compound 71, Tert-butyl N-(2,2-difluoroethyl)-N-[1-[(2S,3R,5R,10R,13R,14S,17S)-2,3,14-trihydroxy-10,13-dimethyl-6-oxo-2,3,4,5,9,11,12,15,16,17-decahydro-1H-cyclopenta[a]phenanthren-17-yl]ethyl]carbamate], less than 70%.

As to `C[C@@H]1CN(CC(=O)[C@H]2CC[C@@]3(O)C4=CC(=O)[C@@H]5C[C@@H](O)[C@@H](O)C[C@]5(C)C4CC[C@]23C)C[C@H](C)O1` (stereo partly drawn) [Compound 83, (2S,3R,5R,10R,13R,14S,17S)-17-[2-[(2S,6R)-2,6-dimethylmorpholin-4-yl]acetyl]-2,3,14-trihydroxy-10,13-dimethyl-2,3,4,5,9,11,12,15,16,17-decahydro-1H-cyclopenta[a]phenanthren-6-one], the mrna remaining at 10 µM lay within 71 to 85%. Under `CO/N=C(/C)[C@H]1CC[C@@]2(O)C3=CC(=O)[C@@H]4C[C@@H](O)[C@@H](O)C[C@]4(C)C3CC[C@]12C` (stereo partly drawn) [Compound 25, (2S,3R,5R,10R,13R,14S,17S)-17-(N-methoxy-C-methylcarbonimidoyl)-2,3,14-trihydroxy-10,13-dimethyl-2,3,4,5,9,11,12,15,16,17-decahydro-1H-cyclopenta[a]phenanthren-6-one] stands less than 70%. `C/C(=N/OCCOc1ccccc1)[C@H]1CC=C2C3=CC(=O)[C@@H]4C[C@@H](O)[C@@H](O)C[C@]4(C)C3CC[C@@]21C` (stereo partly drawn) [Compound 33, (2S,3R,5R,10R,13R,17S)-2,3-dihydroxy-10,13-dimethyl-17-(C-methyl-N-(2-phenoxyethoxy)carbonimidoyl)-1,2,3,4,5,9,11,12,16,17-decahydrocyclopenta[a]phenanthren-6-one] had a mrna remaining at 10 µM of less than 70%.

Regarding `CO/N=C1/C=C2C3=CC[C@H](C(C)=NO)[C@@]3(C)CCC2[C@@]2(C)C[C@H](O)[C@H](O)C[C@@H]12` (stereo partly drawn) [Compound 7, 1-[(2S,3R,5R,6Z,10R,13R,17S)-2,3-dihydroxy-6-methoxyimino-10,13-dimethyl-1,2,3,4,5,9,11,12,16,17-decahydrocyclopenta[a]phenanthren-17-yl]ethanone oxime], the mrna remaining at 10 µM was less than 70%. Under `CC([C@H]1CC[C@@]2(O)C3=CC(=O)[C@@H]4C[C@@H](O)[C@@H](O)C[C@]4(C)C3CC[C@]12C)N(Cc1cccnc1)C(=O)c1ccco1` (stereo partly drawn) [Compound 73, N-(3-pyridylmethyl)-N-[1-[(2S,3R,5R,10R,13R,14S,17S)-2,3,14-trihydroxy-10,13-dimethyl-6-oxo-2,3,4,5,9,11,12,15,16,17-decahydro-1H-cyclopenta(a)phenanthren-17-yl]ethyl]furan-2-carboxamide] stands 71 to 85%; under `CC([C@H]1CC[C@@]2(O)C3=CC(=O)[C@@H]4C[C@@H](O)[C@@H](O)C[C@]4(C)C3CC[C@]12C)N(CC1CCCO1)C(=O)C1CC1` (stereo partly drawn) [Compound 47, N-(tetrahydrofuran-2-ylmethyl)-N-[1-[(2S,3R,5R,10R,13R,14S,17S)-2,3,14-trihydroxy-10,13-dimethyl-6-oxo-2,3,4,5,9,11,12,15,16,17-decahydro-1H-cyclopenta[a]phenanthren-17-yl]ethyl]cyclopropanecarboxamide], less than 70%; under `COC(CN(C)C(C)[C@H]1CC[C@@]2(O)C3=CC(=O)[C@@H]4C[C@@H](O)[C@@H](O)C[C@]4(C)C3CC[C@]12C)OC` (stereo partly drawn) [Compound 79, (2S,3R,5R,10R,13R,14S,17S)-17-[1-(2,2-dimethoxyethyl(methyl)amino)ethyl]-2,3,14-trihydroxy-10,13-dimethyl-2,3,4,5,9,11,12,15,16,17-decahydro-1H-cyclopenta[a]phenanthren-6-one], less than 70%. In turn, `COC(CN(C(=O)c1cccs1)C(C)[C@H]1CC[C@@]2(O)C3=CC(=O)[C@@H]4C[C@@H](O)[C@@H](O)C[C@]4(C)C3CC[C@]12C)OC` (stereo partly drawn) [Compound 64, N-(2,2-dimethoxyethyl)-N-[1-[(2S,3R,5R,10R,13R,14S,17S)-2,3,14-trihydroxy-10,13-dimethyl-6-oxo-2,3,4,5,9,11,12,15,16,17-decahydro-1H-cyclopenta[a]phenanthren-17-yl]ethyl]thiophene-2-carboxamide] yielded a mrna remaining at 10 µM of less than 70%.

Values taken from patent US10316056B2, “Chemical compounds and use thereof for improving muscular quality” (BIOPHYTIS, priority 2014, dated 2019).
